Square brackets hold non-standard residues; d marks the D form. Ends that are not written are not given here. * marks the point of attachment. Octanoyl = CCCCCCCC(=O)*
Assays:
Format in all cases: cell-based, Wistar rat
[1] = system: cultured fetal skin cell; test: Cell proliferation acceleration (BrdU uptake, Proliferation ELISA) in cultured fetal skin cell; conditions: ghrelin 0.05 to 500 pmol/mL (nM) or GHRP6 0.05 to 50 pmol/mL (nM); 24 hours; versus control medium; FIG. 4
Method: The fetal skin cells were collected from a Wistar rat on the 17th day of pregnancy, and a dispersion liquid thereof was obtained in the same manner as in Example 2. The dispersed cells with ghrelin (0.05 to 500 pmol/mL (nM)) or GHRP6 (0.05 to 50 pmol/mL (nM)) were suspended in a MCDB153HAA medium (F-Peptide Co., Ltd., Yamagata, Japan) containing 2% fetal bovine serum, penicillin (100 U/mL), streptomycin (100 μg/mL) and epidermal growth factor EGF (5 ng/mL), and sowed on a polyethyleneimine coated 96-hole multi-well plate in an amount of 3×10^4 cells/well. A medium without containing ghrelin or GHRP6 was used as a control. 5-bromo-2′-deoxyuridine (BrdU) (10 μM) was added thereto, which was then incubated for 24 hours. After the culture was over, uptake quantity of BrdU into the fetal skin cell was measured using Proliferation ELISA Kit (Roche Diagnostic GmbH. Manheim, Germany) to consider the skin cell growth activity.

[2] = system: fetal skin cell having GHS-R1a; test: Intracellular calcium-increasing activity in cultured fetal skin cell (Fura-2 calcium imaging); conditions: single skin cell of rat fetus
Method: A Wistar rat on the 17th day of pregnancy underwent laparotomy under anesthesia for fetus extraction. A small piece of skin was collected from the fetus, treated with collagenase in cold Hank's solution, digested with papain, and mechanically separated by pipetting. This gave a dispersion liquid of the fetal skin cells. A single cell was obtained from the dispersion liquid, ghrelin was added thereto, and calcium imaging was performed. For the calcium imaging, a calcium imaging device (IMACS, Hamamatsu Photonics) was used. That is, the ratio of the emission at a wavelength of 510 nm was measured when excitation was performed by 340 nm/380 nm light. Fura-2 was used as a calcium imaging agent. Ghrelin derived from a rat (SEQ ID NO: 3) was used (the same in the following Examples).
In FIG. 2, I, II and III are the points at which a photograph was taken, but the photographs are omitted from the present description. […] Ghrelin and desacylghrelin were added to different cells, respectively.

[3] = system: cultured fetal skin cell; test: [3H]-thymidine uptake acceleration in cultured fetal skin cell; conditions: ghrelin 0.5, 5 and 50 pmol/mL (nM); incubated 24 or 48 hours; versus control without ghrelin; FIG. 3
Method: The skin cells of a rat fetus were collected from a Wistar rat on the 17th day of pregnancy, and a dispersion liquid thereof was obtained in the same manner as in Example 2. The dispersed cells were suspended in a MCDB153HAA medium (F-Peptide Co., Ltd., Yamagata, Japan) containing 2% fetal bovine serum, penicillin (100 U/mL), streptomycin (100 μg/mL) and epidermal growth factor EGF (5 ng/mL), and sowed on a polyethyleneimine coated 48-hole multi-well plate in an amount of 5×10^5 cells/well. Ghrelin ([…] (nM))) and [^3H]-thymidine (2 μCi/mL) were added thereto, which was then incubated for 24 hours or 48 hours. A culture solution without containing ghrelin was prepared as a control. After the incubation was over, the cells were collected and radioactivity was measured.
The results are shown in FIG. 3 (black triangle: 50 pmol/mL, black square: 5 pmol/mL, black circle: 0.5 pmol/mL, white circle: control).

Substance | uptake of BrdU into the fetal skin cell [1] | calcium response of a single fetal skin cell (FIG. 2 curve) ([2]; dotted-line curve of FIG. 2, concentration not given) | intracellular calcium in a single fetal skin cell ([2]; ghrelin 1×10^−6 M, day 17 of pregnancy, Fura-2, 340 nm/380 nm ratio, FIG. 2) | uptake of [3H]-thymidine into the cell [3]
H[dW]AW[dF]K-NH2 [GHRP6, reference compound] | significantly increased | – | – | –
desacylghrelin [reference compound] | – | responded | – | –
GSS (n-octanoyl) FLSPEHQKAQQRKESKKPPAKLQPR (GSS(Octanoyl)FLSPEHQKAQQRKESKKPPAKLQPR; listed as Rattus norvegicus) [ghrelin, 28-residue peptide, serine 3 acylated with n-octanoyl, endogenous GHS-R1a ligand] | significantly increased | – | increase of calcium was observed | increased

From patent publication US20090181888A1, “Skin Repair Accelerating Therapeutic Agent Containing Ghrelin and Derivatives Thereof or Substance Acting On GHS-R1a as Active Ingredient” (priority 2005, published 2009)
